For assay [1], the target named is T1, human GIP receptor (GIP R) (Homo sapiens, UniProt P48546).
T1 sequence (P48546 22-466): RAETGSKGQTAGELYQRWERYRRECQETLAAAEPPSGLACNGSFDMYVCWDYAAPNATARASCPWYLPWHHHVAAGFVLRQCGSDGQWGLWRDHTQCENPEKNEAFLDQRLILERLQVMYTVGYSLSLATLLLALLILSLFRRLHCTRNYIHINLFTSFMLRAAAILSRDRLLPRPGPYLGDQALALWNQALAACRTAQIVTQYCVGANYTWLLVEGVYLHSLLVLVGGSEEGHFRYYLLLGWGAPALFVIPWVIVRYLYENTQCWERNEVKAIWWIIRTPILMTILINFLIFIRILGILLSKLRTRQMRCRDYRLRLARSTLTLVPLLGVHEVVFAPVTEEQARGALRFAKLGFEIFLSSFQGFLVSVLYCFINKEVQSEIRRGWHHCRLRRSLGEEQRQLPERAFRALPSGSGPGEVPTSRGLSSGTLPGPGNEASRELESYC
Put plainly: Activity assay at human GIP receptor, cAMP induction (AlphaScreen), Example 3.

For assay [2], the target named is T2, human GIP R (Homo sapiens, UniProt P48546).
T2 sequence (P48546 22-466): T1 sequence (P48546 22-466)
Put plainly: cell-based.

Assay [3] has as its target human GLP-1 receptor (GLP-1R) (Homo sapiens, UniProt P43220). The experiment in a line: Activity assay at human GLP-1 receptor, cAMP induction (AlphaScreen), Example 3. A general note: Bead proximity is the source of the signal in Alpha formats.

The EC50 is the concentration at which the effect is half-maximal. Read a high EC50 as a less potent agent.

Each structure is given as a SMILES string. Starred links: 1 amine or outer side, 2 acyl side, 3 side chain; linkers in the order of their positions; H or OH if unused. Non-standard residues stand in square brackets, D forms with d. Residues, ends and D or L forms follow the SMILES beside them. Groups on a side chain read outwards from the residue. *: point of attachment. X1 = O=C(O)CCCCCCCCCCCCCCCCCCC(=O)N1CCN(CC(=O)*)CC1; C20 diacid = O=C(O)CCCCCCCCCCCCCCCCCCC(=O)*; γGlu = O=C(O)[C@H](CCC(=O)[*:2])N[*:1]; AEEA = NCCOCCOCC(=O)O; Aib = CC(C)(N)C(=O)O

Sequence of human GLP-1 receptor (GLP-1R) (P43220 24-463): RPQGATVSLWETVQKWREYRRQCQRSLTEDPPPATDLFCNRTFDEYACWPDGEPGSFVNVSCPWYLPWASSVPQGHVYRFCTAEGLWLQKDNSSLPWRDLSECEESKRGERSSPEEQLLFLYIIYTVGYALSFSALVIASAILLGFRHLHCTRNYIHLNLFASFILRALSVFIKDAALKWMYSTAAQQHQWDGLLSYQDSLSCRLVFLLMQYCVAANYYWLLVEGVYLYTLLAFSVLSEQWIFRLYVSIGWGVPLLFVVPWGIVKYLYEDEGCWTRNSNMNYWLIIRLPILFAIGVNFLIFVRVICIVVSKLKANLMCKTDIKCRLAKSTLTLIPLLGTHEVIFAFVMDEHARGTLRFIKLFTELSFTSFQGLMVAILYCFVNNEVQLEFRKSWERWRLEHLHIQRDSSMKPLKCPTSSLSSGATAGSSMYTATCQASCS

On to `CC[C@H](C)[C@H](NC(=O)[C@H](Cc1ccccc1)NC(=O)[C@H](CC(=O)O)NC(=O)[C@H](CCC(N)=O)NC(=O)[C@H](C)NC(=O)[C@H](C)NC(=O)[C@H](CCCCNC(=O)COCCOCCNC(=O)COCCOCCNC(=O)CC[C@H](NC(=O)CCCCCCCCCCCCCCCCCCC(=O)O)C(=O)O)NC(=O)[C@H](CCCCN)NC(=O)[C@H](CC(=O)O)NC(=O)[C@H](CC(C)C)NC(=O)[C@H](CCC(=O)O)NC(=O)[C@@H](NC(=O)[C@H](CO)NC(=O)[C@H](Cc1ccc(O)cc1)NC(=O)[C@H](CC(=O)O)NC(=O)[C@H](CO)NC(=O)[C@@H](NC(=O)[C@H](Cc1ccccc1)NC(=O)[C@@H](NC(=O)CNC(=O)[C@H](CCC(=O)O)NC(=O)C(C)(C)NC(=O)[C@@H](N)Cc1ccc(O)cc1)[C@@H](C)O)[C@@H](C)CC)[C@@H](C)CC)C(=O)N[C@@H](CCC(=O)O)C(=O)N[C@@H](Cc1c[nH]c2ccccc12)C(=O)N[C@@H](CC(C)C)C(=O)N[C@@H](CC(C)C)C(=O)N[C@@H](C)C(=O)NCC(=O)N1CCC[C@H]1C(=O)N[C@@H](CO)C(=O)N[C@@H](CO)C(=O)NCC(=O)N[C@@H](C)C(=O)N1CCC[C@H]1C(=O)N1CCC[C@H]1C(=O)N1CCC[C@H]1C(=O)N[C@@H](CO)C(N)=O` [Compound 32] (H-Y[Aib]EGTFISDYSIELDKK([AEEA-AEEA-γGlu-C20 diacid])AAQDFIEWLLAGPSSGAPPPS-NH2), for which the EC50 in assay [1] was 12 pM; in assay [2], 20 pM; in assay [3], > 100000 pM.

For the compound `CC[C@H](C)[C@H](NC(=O)[C@H](CCCCNC(=O)COCCOCCNC(=O)COCCOCCNC(=O)CC[C@H](NC(=O)CCCCCCCCCCCCCCCCCCC(=O)O)C(=O)O)NC(=O)[C@H](CC(=O)O)NC(=O)[C@H](CC(C)C)NC(=O)[C@H](CCC(=O)O)NC(=O)[C@@H](NC(=O)[C@H](CO)NC(=O)[C@H](Cc1ccc(O)cc1)NC(=O)[C@H](CC(=O)O)NC(=O)[C@H](CO)NC(=O)[C@@H](NC(=O)[C@H](Cc1ccccc1)NC(=O)[C@@H](NC(=O)CNC(=O)[C@H](CCC(=O)O)NC(=O)C(C)(C)NC(=O)[C@@H](N)Cc1ccc(O)cc1)[C@@H](C)O)[C@@H](C)CC)[C@@H](C)CC)C(=O)N[C@@H](C)C(=O)N[C@@H](CCC(N)=O)C(=O)N[C@@H](CCCNC(=N)N)C(=O)N[C@@H](C)C(=O)N[C@@H](Cc1ccccc1)C(=O)N[C@H](C(=O)N[C@@H](CCC(=O)O)C(=O)N[C@@H](Cc1c[nH]c2ccccc12)C(=O)N[C@@H](CC(C)C)C(=O)N[C@@H](CC(C)C)C(=O)N[C@@H](C)C(=O)N[C@@H](CCC(N)=O)C(=O)NCC(=O)N1CCC[C@H]1C(=O)N[C@@H](CO)C(=O)N[C@@H](CO)C(=O)NCC(=O)N[C@@H](C)C(=O)N1CCC[C@H]1C(=O)N1CCC[C@H]1C(=O)N1CCC[C@H]1C(=O)N[C@@H](CO)C(N)=O)[C@@H](C)CC` [Compound 34] (H-Y[Aib]EGTFISDYSIELDK([AEEA-AEEA-γGlu-C20 diacid])IAQRAFIEWLLAQGPSSGAPPPS-NH2), the EC50 in assay [1] was 17 pM; in assay [2], 11 pM; in assay [3], > 10000 pM.

As to `CC[C@H](C)[C@H](NC(=O)[C@H](Cc1ccccc1)NC(=O)[C@H](C)NC(=O)[C@H](CCCNC(=N)N)NC(=O)[C@H](CCC(N)=O)NC(=O)[C@H](C)NC(=O)[C@H](CCCCNC(=O)COCCOCCNC(=O)COCCOCCNC(=O)CC[C@H](NC(=O)CCCCCCCCCCCCCCCCCCC(=O)O)C(=O)O)NC(=O)[C@H](CCCCN)NC(=O)[C@H](CC(=O)O)NC(=O)[C@H](CC(C)C)NC(=O)[C@H](CCC(=O)O)NC(=O)[C@@H](NC(=O)[C@H](CO)NC(=O)[C@H](Cc1ccc(O)cc1)NC(=O)[C@H](CC(=O)O)NC(=O)[C@H](CO)NC(=O)[C@@H](NC(=O)[C@H](Cc1ccccc1)NC(=O)[C@@H](NC(=O)CNC(=O)[C@H](CCC(=O)O)NC(=O)[C@@H](C)NC(=O)[C@@H](N)Cc1ccc(O)cc1)[C@@H](C)O)[C@@H](C)CC)[C@@H](C)CC)C(=O)N[C@@H](CCC(=O)O)C(=O)N[C@@H](Cc1c[nH]c2ccccc12)C(=O)N[C@@H](CC(C)C)C(=O)N[C@@H](CC(C)C)C(=O)N[C@@H](C)C(=O)N[C@@H](CCC(N)=O)C(=O)NCC(=O)N1CCC[C@H]1C(=O)N[C@@H](CO)C(=O)N[C@@H](CO)C(=O)NCC(=O)N[C@@H](C)C(=O)N1CCC[C@H]1C(=O)N1CCC[C@H]1C(=O)N1CCC[C@H]1C(=O)N[C@@H](CO)C(N)=O` [Compound 36] (H-Y[dA]EGTFISDYSIELDKK([AEEA-AEEA-γGlu-C20 diacid])AQRAFIEWLLAQGPSSGAPPPS-NH2), the values for the EC50 in assay [1], in assay [2] and in assay [3] were 6 pM, 6 pM and > 10000 pM, respectively.

On to `CC[C@H](C)[C@H](NC(=O)[C@H](CCCCN)NC(=O)[C@H](CC(=O)O)NC(=O)[C@H](CC(C)C)NC(=O)[C@H](CCC(=O)O)NC(=O)[C@@H](NC(=O)[C@H](CO)NC(=O)[C@H](Cc1ccc(O)cc1)NC(=O)[C@H](CC(=O)O)NC(=O)[C@H](CO)NC(=O)[C@@H](NC(=O)[C@H](Cc1ccccc1)NC(=O)[C@@H](NC(=O)CNC(=O)[C@H](CCC(=O)O)NC(=O)[C@@H](C)NC(=O)[C@@H](N)Cc1ccc(O)cc1)[C@@H](C)O)[C@@H](C)CC)[C@@H](C)CC)C(=O)N[C@@H](C)C(=O)N[C@@H](C)C(=O)N[C@@H](CCC(N)=O)C(=O)N[C@@H](CC(=O)O)C(=O)N[C@@H](Cc1ccccc1)C(=O)N[C@H](C(=O)N[C@@H](CCC(=O)O)C(=O)N[C@@H](Cc1c[nH]c2ccccc12)C(=O)N[C@@H](CC(C)C)C(=O)N[C@@H](CC(C)C)C(=O)N[C@@H](C)C(=O)NCC(=O)N1CCC[C@H]1C(=O)N[C@@H](CO)C(=O)N[C@@H](CO)C(=O)NCC(=O)N[C@@H](C)C(=O)N1CCC[C@H]1C(=O)N1CCC[C@H]1C(=O)N1CCC[C@H]1C(=O)N[C@@H](CO)C(=O)N[C@@H](CCCCNC(=O)COCCOCCNC(=O)COCCOCCNC(=O)CN1CCN(C(=O)CCCCCCCCCCCCCCCCCCC(=O)O)CC1)C(N)=O)[C@@H](C)CC` [Compound 37] (H-Y[dA]EGTFISDYSIELDKIAAQDFIEWLLAGPSSGAPPPSK([AEEA-AEEA-X1])-NH2), for which the values for the EC50 in assay [1], in assay [2] and in assay [3] were 6 pM, 16 pM and > 10000 pM, respectively.

For `CC[C@H](C)[C@H](NC(=O)[C@H](Cc1ccccc1)NC(=O)[C@H](CC(=O)O)NC(=O)[C@H](CCC(N)=O)NC(=O)[C@H](C)NC(=O)[C@H](C)NC(=O)[C@H](CCCCNC(=O)COCCOCCNC(=O)COCCOCCNC(=O)CC[C@H](NC(=O)CCCCCCCCCCCCCCCCCCC(=O)O)C(=O)O)NC(=O)[C@H](CCCCN)NC(=O)[C@H](CC(=O)O)NC(=O)[C@H](CC(C)C)NC(=O)[C@H](CCC(=O)O)NC(=O)[C@@H](NC(=O)[C@H](CO)NC(=O)[C@H](Cc1ccc(O)cc1)NC(=O)[C@H](CC(=O)O)NC(=O)[C@H](CO)NC(=O)[C@@H](NC(=O)[C@H](Cc1ccccc1)NC(=O)[C@@H](NC(=O)CNC(=O)[C@H](CCC(=O)O)NC(=O)C(C)(C)NC(=O)[C@@H](N)Cc1ccc(O)cc1)[C@@H](C)O)[C@@H](C)CC)[C@@H](C)CC)C(=O)N[C@@H](CCC(=O)O)C(=O)N[C@@H](Cc1c[nH]c2ccccc12)C(=O)N[C@@H](CC(C)C)C(=O)N[C@@H](CC(C)C)C(=O)N[C@@H](C)C(=O)N[C@@H](CCC(N)=O)C(=O)NCC(=O)N1CCC[C@H]1C(=O)N[C@@H](CO)C(=O)N[C@@H](CO)C(=O)NCC(=O)N[C@@H](C)C(=O)N1CCC[C@H]1C(=O)N1CCC[C@H]1C(=O)N1CCC[C@H]1C(=O)N[C@@H](CO)C(N)=O` [Compound 38] (H-Y[Aib]EGTFISDYSIELDKK([AEEA-AEEA-γGlu-C20 diacid])AAQDFIEWLLAQGPSSGAPPPS-NH2), the results for the EC50 in assay [1], in assay [2] and in assay [3] were 17 pM, 1 pM and > 100000 pM, respectively.

For `CC[C@H](C)[C@H](NC(=O)[C@H](Cc1ccccc1)NC(=O)[C@H](CC(=O)O)NC(=O)[C@H](CCC(N)=O)NC(=O)[C@H](C)NC(=O)[C@H](C)NC(=O)[C@H](CCCCNC(=O)COCCOCCNC(=O)COCCOCCNC(=O)CC[C@H](NC(=O)CCCCCCCCCCCCCCCCCCC(=O)O)C(=O)O)NC(=O)[C@H](CCCCN)NC(=O)[C@H](CC(=O)O)NC(=O)[C@H](CC(C)C)NC(=O)[C@H](CCC(=O)O)NC(=O)[C@@H](NC(=O)[C@H](CO)NC(=O)[C@H](Cc1ccc(O)cc1)NC(=O)[C@H](CC(=O)O)NC(=O)[C@H](CO)NC(=O)[C@@H](NC(=O)[C@H](Cc1ccccc1)NC(=O)[C@@H](NC(=O)CNC(=O)[C@H](CCC(=O)O)NC(=O)C(C)(C)NC(=O)[C@@H](N)Cc1ccc(O)cc1)[C@@H](C)O)[C@@H](C)CC)[C@@H](C)CC)C(=O)N[C@@H](CC(N)=O)C(=O)N[C@@H](Cc1c[nH]c2ccccc12)C(=O)N[C@@H](CC(C)C)C(=O)N[C@@H](CC(C)C)C(=O)N[C@@H](C)C(=O)N[C@@H](CCC(N)=O)C(=O)NCC(=O)N1CCC[C@H]1C(=O)N[C@@H](CO)C(=O)N[C@@H](CO)C(=O)NCC(=O)N[C@@H](C)C(=O)N1CCC[C@H]1C(=O)N1CCC[C@H]1C(=O)N1CCC[C@H]1C(=O)N[C@@H](CO)C(N)=O` [Compound 39] (H-Y[Aib]EGTFISDYSIELDKK([AEEA-AEEA-γGlu-C20 diacid])AAQDFINWLLAQGPSSGAPPPS-NH2), the values for the EC50 in assay [1], in assay [2] and in assay [3] were 1 pM, 7 pM and > 100000 pM, respectively.

The values are drawn from patent US12703729B2, “GIP agonist compounds and methods” (Zealand Pharma A/S, priority 2014, dated 2026).
